Reference: patent publication US11246899B2, “Urtica dioica extracts and methods of isolating urtica dioica extracts” (SynHiTech Inc., priority 2018, dated 2022)

System: Type 2 diabetic patients
Assay: Clinical study in Type 2 diabetic patients, blood glucose by glucometer and side effects
Type: in vivo, human
Procedure: The effect of the Urdi-1 extract was tested on six Type 2 diabetic patients. The consents were filled by patients and were reviewed by the ethical committee of Tehran Hospital. The UD1-extract (20 mg of Urdi-1) was taken orally as one or two dosages per day. Blood glucose was measured by glucometer as fasted or after dining. After getting the promising data at the animal level, we tested the efficacy of Urdi-1 in Type 2 diabetic patients. Six patients (Patient I to VI) with high level of blood glucose consented to participate in the study (Table 2). These patients were selected different sex (male and female) with varying age ranging from mid forty to late sixty. As the level of the referral blood glucose and the medication administrated by their physicians were different data of each patient is presented individually.

[1] = Patient I, after insulin two weeks then Glibenclamide and metformin for one month
[2] = Patient IV, after insulin 17 days then Glibenclamide and metformin for two weeks

In the case of Glibenclamide and metformin, the fasting blood glucose [1] is reported as “about 175 mg/dL”, the night blood glucose [1] is reported as about 225 mg/dL and the fasting blood glucose [2] is reported as “about 90 mg/dL”. It also gave a night blood glucose [2] of about 220 mg/dL.
